# Test results taken from publication PMC11364768 (Nature Communications, 2024).
# No end group written: not given here.
# Legend:
# [1] = Organ; type: in vivo, ICR mice; conditions: mice, 10 mg/kg
# [2] = Blood test, RBC parameters after intraperitoneal injection; type: in vivo, ICR mice; conditions: mice, 24 h after intraperitoneal injection
# [3] = system: K. pneumoniae (ATCC27736); experiment: Minimal inhibition concentration; type: cell-based; conditions: Klebsiella pneumoniae, ATCC27736, 20 h, read-out: Antimicrobial activity (MIC in µg/ml) K. pneumoniae
# [4] = system: S. aureus (ATCC 25904); experiment: Minimal inhibition concentration; type: cell-based; conditions: Staphylococcus aureus, ATCC25904, 20 h, read-out: Antimicrobial activity (MIC in µg/ml) S. aureus
# [5] = system: E. coli (ATCC BAA-1025); experiment: Minimal inhibition concentration; type: cell-based; conditions: Escherichia coli, ATCCBAA1025, 20 h, read-out: Antimicrobial activity (MIC in µg/ml) E. coli
# [6] = system: P. aeruginosa (ATCC 47085); experiment: Minimal inhibition concentration; type: cell-based; conditions: Pseudomonas aeruginosa, ATCC47085, 20 h, read-out: Antimicrobial activity (MIC in µg/ml) P. aeruginosa
# [7] = system: P. aeruginosa; experiment: Wound mouse model, bacterial load on the wound surface; type: in vivo, Female ICR mice; conditions: 10^7 CFU P. aeruginosa inoculated; 10 mg/kg applied to wound twice a day; n = 8
# [8] = system: S. aureus; experiment: Bacterial resistance development, serial passage; type: cell-based, Staphylococcus aureus; conditions: passaged every 24 h, n = 4
MIC [3] [µg/mL],Molecule,"organ-specific toxicity, tissue section images [1]",Blood test results [2],also measured
–,RQIKIWFQIRRWKWKK [T1-2],did not observe organ-specific toxicity,no obvious changes,–
1000,CN[C@H](CC(C)C)C(=O)N[C@H]1C(=O)N[C@@H](CC(N)=O)C(=O)N[C@H]2C(=O)N[C@H]3C(=O)N[C@H](C(=O)N[C@H](C(=O)O)c4cc(O)cc(O)c4-c4cc3ccc4O)[C@H](O)c3ccc(c(Cl)c3)Oc3cc2cc(c3O[C@@H]2O[C@H](CO)[C@@H](O)[C@H](O)[C@H]2O[C@H]2C[C@](C)(N)[C@H](O)[C@H](C)O2)Oc2ccc(cc2Cl)[C@H]1O [Vancomycin],–,–,–
–,RQIKIWFQWRRWKWKK [T1-5],did not observe organ-specific toxicity,no obvious changes,–
0.06,C[C@H]1COc2c(N3CCN(C)CC3)c(F)cc3c(=O)c(C(=O)O)cn1c23 [Levofloxacin],–,–,MIC [4]: 0.09 µg/mL; MIC [5]: 2.93 µg/mL; MIC [6]: 7.81 µg/mL; bacteria on the infected wound after 24 h treatment [7]: 0 CFU
–,O=C(O)c1cn(C2CC2)c2cc(N3CCNCC3)c(F)cc2c1=O [ciprofloxacin],–,–,passages after which S. aureus began to develop resistance [8]: 10 passages
–,RQIRIWFQWKRWKWKR [T2-10],did not observe organ-specific toxicity,no obvious changes,–
